Test results from the METLIN SMRT retention time set (Domingo-Almenara et al. 2019).

Test: gradient 5% acetonitrile 3 min, to 50% in 2 min, to 85% in 15 min, held 3 min, 100 µL/min
Conditions: column: Zorbax Extend-C18 2.1 x 50 mm; eluents: water / acetonitrile, 0.1% formic acid
Procedure, shortened: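 Values are retention times taken from adduct peaks that software picked and an analyst inspected. The pure standards were run as mixtures of ~100 molecules on HPLC linked to a quadrupole time-of-flight mass spectrometer, in positive and negative ionization mode. A Zorbax Extend-C18 column (2.1 × 50 mm, 1.8 μm) was used at 100 μL/min with water and acetonitrile, each including 0.1% formic acid.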

Row | Compound | RP-LC retention time
1 | COc1ccc(Cl)c2c(=O)c3c([nH]c12)CCN(CC(=O)Nc1ccccc1F)C3 | 604 s
2 | O=C1C(N2CCCN(S(=O)(=O)c3cccnc3)CC2)CCN1CC1CC1 (centres undefined) | 593 s
3 | O=S(=O)(Nc1ccc(-c2noc(COc3ccc(F)cc3)n2)cc1)c1cccs1 | 1040 s
4 | Cc1nnc2c(NC(=O)c3ccc(Cl)s3)cccn12 | 729 s
5 | CCOC(=O)c1c(NC(=O)CSc2n[nH]c(N)n2)sc(C)c1C | 696 s
6 | CC(C)c1ccc(-c2nc3ncccn3c2NCc2ccc(Cl)cc2)cc1 | 936 s
7 | COc1ccc2c(c1)C1(CCN(C(=O)Nc3ccc(F)cc3)C1)C(=O)N2 (centres undefined) | 683 s
8 | CC(=O)c1ccc(NC(=O)C(C)Oc2cc(-c3ccccc3)c3c(C)nn(C)c3n2)cc1 (centres undefined) | 990 s
9 | CC(=O)N1CCc2cc(N3CC(C(=O)Nc4ccccc4C(F)(F)F)CC3=O)ccc21 (centres undefined) | 710 s
10 | CCn1ccc(C(=O)Nc2ccc(N3CCN(c4ccccc4)C3=O)nc2)n1 | 786 s
11 | Cc1nnc(NC(=O)c2ccccc2OCc2nc(-c3ccccc3)no2)s1 | 953 s
12 | O=C(NCCc1cnc[nH]1)c1cc(-c2cccnc2)nc2ccccc12 | 566 s
13 | CCc1cccc(C)c1NC(=O)Cn1c(=O)n(-c2ccccc2)c(=O)c2c1cc(C)n2C | 833 s
14 | CCSc1nnc(-c2nn(C)c3c2CN(C(=O)c2cccc(Cl)c2)CC3)n1C | 788 s
15 | CC(C)NC(=O)NCCN1CCN(c2ccccc2)CC1 | 569 s
16 | CCN1CCN(c2c(S(=O)(=O)c3ccc(OC)cc3)cnc3cc(OC)c(OC)cc23)CC1 | 628 s
17 | CCOC(=O)C(C)Oc1cccc2c(=O)n(CC(=O)Nc3ccc([N+](=O)[O-])cc3)ccc12 (centres undefined) | 842 s
18 | COc1ccc(NC(=O)Nc2nccn(-c3ccc(Cl)cc3)c2=O)cc1OC | 854 s
19 | Fc1ccccc1-c1ccc(CNCc2ccco2)o1 | 659 s
20 | Cc1cccc(-c2nc(Cc3noc(-c4ccncc4)n3)c(C)o2)c1 | 1010 s
21 | CC(C)(C)n1nnnc1C1CC2(CCOCC2)C(=O)N1Cc1ccccc1 (centres undefined) | 769 s
22 | CCn1c(CCC(=O)NCc2ccc(F)cc2)nc2c(C)cccc2c1=O | 848 s
23 | O=C(Cn1nc2c(cc1=O)CCCC2)NCCc1c[nH]c2ccc(F)cc12 | 753 s
24 | O=C(Cn1cccc1-c1nc(-c2ccc3c(c2)OCO3)no1)Nc1cc(F)cc(F)c1 | 1060 s
25 | CCc1ccccc1NC(=O)N1CCC2(CC1)NC(=O)c1cccc(Cl)c1N2 | 766 s

Row | Compound | RP-LC retention time
26 | Cc1ccc(CNC(=O)COc2ccccc2-c2nnc(-c3ccccc3)o2)o1 | 1040 s
27 | CCC(=O)N1CCc2cc(S(=O)(=O)CCC(=O)N3CC(C)CC(C)C3)ccc21 (centres undefined) | 871 s
28 | Cc1cccc(C)c1NS(=O)(=O)c1cc(-c2cc(C(F)(F)F)on2)sc1C | 1230 s
29 | CCN(CC)CCNC(=O)COc1ccc(Cl)cc1 | 694 s
30 | O=C(Cn1cncc(-c2nc(-c3cccs3)cs2)c1=O)Nc1cccc(Cl)c1 | 941 s
31 | CCCNC(=O)c1ccc2nc(CCc3ccc(NC(=O)CC)cc3)[nH]c2c1 | 608 s
32 | Cc1cc(NC(=O)C(=O)NCCc2ccc(S(N)(=O)=O)cc2)no1 | 613 s
33 | COc1cccc(CNC(=O)Cn2c(=O)cc(-c3nc(C(C)C)no3)c3ccccc32)c1 | 944 s
34 | COc1ccc(Br)cc1CNC(=O)c1sc2ncccc2c1-n1cccc1 | 1130 s
35 | COc1ccc2[nH]cc(CCNC(=O)C(C)n3c4ccccc4c4cnn(C)c(=O)c43)c2c1 (centres undefined) | 813 s
36 | O=C(Cc1csc(-c2ccccc2)n1)NCc1nc2ccccc2[nH]1 | 647 s
37 | CCn1c(=O)sc2cc(S(=O)(=O)N3CCC(C(=O)NCC(C)c4ccccc4)CC3)ccc21 (centres undefined) | 929 s
38 | Cc1cccn2c(NC(=O)c3cc4ccccc4oc3=O)c(-c3ccccc3)nc12 | 695 s
39 | O=C(CCn1nnc2cc(-c3noc(C4(c5ccccc5)CC4)n3)ccc21)N1CCCC1 | 958 s
40 | COc1ccc(Cn2nc3ccc(S(=O)(=O)N4CCCC4)cn3c2=O)cc1 | 827 s
41 | O=C(Nc1ccc2c(c1)OCO2)c1c(O)c2cccnc2n(-c2ccccc2)c1=O | 663 s
42 | CCN1C(=O)COc2ccc(-c3noc(-c4cc(C)cc(C)c4)n3)cc21 | 1330 s
43 | O=C(CCC1CCCN(S(=O)(=O)c2ccccc2)C1)NCc1ccc(Cl)cc1 (centres undefined) | 979 s
44 | CCN(C(=O)C1C(=O)NC2(C)CC1c1ccccc1O2)c1ccccc1 (centres undefined) | 820 s
45 | O=C(NCc1ccccc1)N1CCN(c2nc3cccnc3n(Cc3ccccc3)c2=O)CC1 | 1020 s
46 | CCCCN1C(=O)C(NC(=O)c2ccccc2OC)(C(F)(F)F)C(C(=O)OC)=C1C (centres undefined) | 1070 s
47 | CCc1nn2c(CNS(=O)(=O)c3ccc(F)cc3)c(-c3ccccc3)nc2s1 | 932 s
48 | CCOC(=O)c1ccc(-n2ccc3nc(C)c(C(=O)OC)cc3c2=O)cc1 | 874 s
49 | OCCNCc1ccc(-c2cccc(Cl)c2)o1 | 987 s
50 | CCC(C)NC(=O)c1cc(=O)[nH]c2ccccc12 (centres undefined) | 645 s

More lines, now with the values ahead:

Row | RP-LC retention time | Compound
51 | 832 s | O=C(Cn1nc2c3sc(N4CCCCC4)nc3ncn2c1=O)Nc1ccc(Cl)cc1
52 | 810 s | O=C(CSc1nc(N2CCCCC2)nc2ccccc12)Nc1ccc(Br)cc1
53 | 876 s | CCOC(=O)c1cccc(NC(=O)Cn2c(=O)c(CCC(=O)NC3CCCC3)nc3ccccc32)c1
54 | 578 s | O=C(NCC1CCN(Cc2cccs2)CC1)C1(c2ccccc2)CCOCC1
55 | 562 s | CCNc1cc(N2CCC(CCC(=O)N3CCN(C(C)=O)CC3)CC2)ncn1
56 | 582 s | Cc1ccc2c(Nc3ccc(S(N)(=O)=O)cc3)c(C(=O)N3CCC(C)CC3)cnc2n1
57 | 718 s | CCc1onc(C)c1C1CCCN1C(=O)Cc1ccc(OC)c(OC)c1 (centres undefined)
58 | 839 s | CCCc1noc(-c2ccnc(-n3ncc(C(=O)NC4CC4)c3C)c2)n1
59 | 937 s | O=C(NC1CCCC1)c1csc(-c2ccc(N3CCCCC3)nc2)n1
60 | 643 s | CN(CCCNC(=O)c1ccc2c(c1)N(C)C(=O)C1CCCCN21)Cc1ccccc1 (centres undefined)
61 | 914 s | CCOC(=O)c1ccccc1NC(=O)CSc1cc(N2CCCC2)ncn1
62 | 705 s | Cc1sc2ccn(C)c(=O)c2c1C(=O)N1CCCCCC1
63 | 633 s | O=C(CCC1CCN(c2cc(NC3CC3)ncn2)CC1)NCc1cccs1
64 | 827 s | O=C(NCC(c1ccco1)N1CCOCC1)c1cc(-c2ccc3c(c2)CCCC3)on1 (centres undefined)
65 | 767 s | Cc1nc(C(=O)NC2CCCCC2)c(C)o1
66 | 859 s | Cc1ccc(CNC(=O)CCCn2c(=O)c3sccc3n(CC(=O)N3CCCCC3C)c2=O)cc1 (centres undefined)
67 | 765 s | Cc1ccc(S(=O)(=O)N2CCCC(CCC(=O)NC3CCS(=O)(=O)C3)C2)cc1 (centres undefined)
68 | 590 s | O=C(C1CCN(c2ncnc3c2oc2ccccc23)CC1)N1CCN(C2CCCCC2)CC1
69 | 1040 s | O=C(NC1CCCCCC1)C1CCN(S(=O)(=O)c2cc(-c3noc(C4CC4)n3)cs2)CC1
70 | 613 s | O=C(NCC1CCCO1)c1ccc(-c2ccc(N3CCCCC3)nc2)cc1 (centres undefined)

Row | RP-LC retention time | Compound
71 | 662 s | COc1cc(C(=O)OC(C)CN2CCOCC2)cc(OC)c1OC (centres undefined)
72 | 566 s | CCOC(=O)c1c(-c2ccc(OC)c(OC)c2)csc1NC(=O)CN1CCCC1
73 | 767 s | CCOC(=O)c1sc(NC(=O)c2cn(C)nc2OC)nc1C
74 | 894 s | CCC1=C(c2ccc(C)cc2)S(=O)(=O)N=C1N1CCC(C(=O)N(C)Cc2ccco2)CC1
75 | 835 s | CCOC(=O)c1c(S(=O)(=O)N2CCC(C(=O)NCc3ccc(F)cc3)CC2)c(C)n(CC)c1C
76 | 612 s | CCc1nn(CC(=O)N2CCC(C(N)=O)CC2)c(=O)c2cc3occc3n12
77 | 625 s | CC(=O)N1CCC2(CC1)CC(CC(=O)NCc1ccc(C)o1)CCO2 (centres undefined)
78 | 804 s | COCCN1C(=O)CCC2(CNC(=O)c3sccc3C)CCCC=C12 (centres undefined)
79 | 576 s | CCOC(=O)C1CCCN(Cc2nc3nc(C)cc(N4CCOCC4)n3n2)C1 (centres undefined)
80 | 908 s | CCOC(=O)C1CCN(S(=O)(=O)c2ccc3c(c2)-c2oncc2CO3)CC1
81 | 674 s | COc1cccc(CN2N=C(C(=O)N3CCC(C)CC3)S(=O)(=O)c3ccc(C)cc32)c1
82 | 838 s | CCCNC(=O)C1CCCN(c2ccc(SCC(=O)Nc3cc(C)c(Cl)cc3OC)nn2)C1 (centres undefined)
83 | 1040 s | Cc1cccc(-c2noc(-c3nn(CC(=O)NCC4CCCO4)c4ccccc34)n2)c1 (centres undefined)
84 | 580 s | CSc1ccccc1CN1CCC(CNC(=O)Nc2c(F)cccc2F)CC1
85 | 815 s | O=C(Cn1nc(C2CC2)cc1C(=O)N1CCCC1)Nc1ccccc1Cl
86 | 722 s | Cc1cc(C(=O)Nc2nnc(Cc3ccc4c(c3)OCO4)o2)c(C)o1
87 | 587 s | CCn1c(CC2CCN(C(=O)c3nccc4ccccc34)C2)nc2cccnc21 (centres undefined)
88 | 863 s | O=C(CSc1nnc2c3sc(N4CCCC4)nc3ncn12)Nc1ccc(F)c(F)c1
89 | 719 s | O=C(COc1ccc(F)c(F)c1)NCC1CCOCC1
